Test results taken from ChEMBL document CHEMBL3882734, “Therapeutic compounds” (2010).

How the values were obtained:
[1] = molecular target: T1, Prostaglandin E2 receptor EP2 subtype (Homo sapiens, UniProt P43116); test: Agonist activity at human recombinant EP2 receptor expressed in HEK293 cells assessed as effect on calcium accumulation by Fluo-4 AM dye based FLIPR assay; format: functional, cell-based
[2] = molecular target: T1, Prostaglandin E2 receptor EP2 subtype; test: Displacement of [3H]PGE2 from human EP2 receptor expressed in HEK293 cells at pH 7.3 membranes incubated for 60 mins; format: cell-based
Canis familiaris [3] = test: Effect on ocular surface hyperemia in Beagle dog assessed as maximum ocular surface hyperemia score assigned value at 0.1% administered topically to one eye immediately after first intraocular pressure reading by pneumatonometry; format: functional, Canis lupus familiaris
Rhesus monkey [4] = test: Reduction in intraocular pressure in monkey assessed as maximal change in intraocular pressure at 0.1% administered topically to one eye immediately after first intraocular pressure reading by pneumatonometry; format: functional, Macaca mulatta
Rhesus monkey [5] = test: Reduction in intraocular pressure in monkey assessed as maximal change in intraocular pressure at 0.01% administered topically to one eye immediately after first intraocular pressure reading by pneumatonometry; format: functional, Macaca mulatta
Rhesus monkey [6] = test: Reduction in intraocular pressure in monkey assessed as maximal change in intraocular pressure at 0.3% administered topically to one eye immediately after first intraocular pressure reading by pneumatonometry; format: functional, Macaca mulatta
Canis familiaris [7] = test: Effect on ocular surface hyperemia in Beagle dog assessed as maximum ocular surface hyperemia score assigned value at 0.3% administered topically to one eye immediately after first intraocular pressure reading by pneumatonometry; format: functional, Canis lupus familiaris
[8] = molecular target: Prostaglandin E2 receptor EP4 subtype (Homo sapiens, UniProt P35408); test: Displacement of [3H]PGE2 from human EP4 receptor expressed in HEK293 cells membranes incubated for 60 mins; format: cell membranes
Chain of Prostaglandin E2 receptor EP4 subtype (P35408 whole entry): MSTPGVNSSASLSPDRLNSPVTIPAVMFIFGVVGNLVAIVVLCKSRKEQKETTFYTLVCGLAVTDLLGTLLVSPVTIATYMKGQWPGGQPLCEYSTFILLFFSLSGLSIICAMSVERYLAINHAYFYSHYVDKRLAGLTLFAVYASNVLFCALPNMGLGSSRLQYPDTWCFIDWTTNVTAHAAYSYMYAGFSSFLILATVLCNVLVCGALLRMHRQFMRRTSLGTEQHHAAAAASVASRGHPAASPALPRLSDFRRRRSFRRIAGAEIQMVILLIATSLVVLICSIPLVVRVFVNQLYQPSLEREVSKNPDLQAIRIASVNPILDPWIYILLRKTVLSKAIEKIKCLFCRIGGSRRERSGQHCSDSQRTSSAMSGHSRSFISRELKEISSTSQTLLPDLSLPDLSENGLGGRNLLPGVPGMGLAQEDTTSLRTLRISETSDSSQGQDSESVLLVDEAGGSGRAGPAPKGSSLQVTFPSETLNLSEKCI

T1 sequence (P43116 whole entry): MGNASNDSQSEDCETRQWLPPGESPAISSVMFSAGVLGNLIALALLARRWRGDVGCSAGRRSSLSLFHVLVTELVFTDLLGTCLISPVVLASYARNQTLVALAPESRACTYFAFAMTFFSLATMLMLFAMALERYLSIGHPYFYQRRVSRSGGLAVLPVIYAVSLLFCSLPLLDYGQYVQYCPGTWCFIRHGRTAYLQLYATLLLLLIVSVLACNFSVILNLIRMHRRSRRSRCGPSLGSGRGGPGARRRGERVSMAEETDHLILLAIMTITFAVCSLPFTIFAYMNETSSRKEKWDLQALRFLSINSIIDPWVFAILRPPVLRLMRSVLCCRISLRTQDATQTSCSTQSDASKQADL

For `CCCCCC(O)c1ccc([C@H]2CC[C@@H](F)[C@@H]2CCCCCCC(=O)OC)cc1` (stereo partly specified), the EC50 ([1]; hek293) was 50 µM and the Ki ([2]; hek293) was 50 µM.
In the case of `O=C(O)CCC/C=C\C[C@@H]1[C@@H](c2ccc(C(O)C3CCCCC3)cc2)[C@H](O)C[C@H]1Cl` (stereo partly specified), the Activity_index (Canis familiaris [3]) is reported as 1.
`CCCCCC(=O)c1ccc([C@@H]2[C@@H](C/C=C\CCCC(=O)O)[C@H](Cl)C[C@H]2O)cc1` was tested, and the Activity (Rhesus monkey [4]) was 31 mmHg.
In the case of `CCCCCC(O)c1ccc([C@H]2CC[C@@H](Cl)[C@@H]2CCCCCCCO)cc1` (stereo partly specified), the EC50 [1] is reported as 50 µM and the Ki [2] is reported as 50 µM.
`CC(C)OC(=O)CCCCCC[C@@H]1[C@@H](c2ccc(C(C)(C)C)cc2)[C@H](O)C[C@H]1Cl` gave an Activity (Rhesus monkey [5]) of 8 mmHg.
Work on `CC(C)OC(=O)CCC/C=C\C[C@@H]1[C@@H](c2ccc(C(O)C3CCCCC3)cc2)[C@H](O)C[C@H]1Cl` (stereo partly specified) yielded an Activity (Rhesus monkey [5]) of 5 mmHg.
With `O=C(O)CCC/C=C\C[C@@H]1[C@@H](c2ccc3c(c2)CCC3O)[C@H](O)C[C@H]1Cl` (stereo partly specified) the Activity (Rhesus monkey [6]) was 7 mmHg and the Activity_index (Canis familiaris [7]) was 1.
For `CCCCCC(O)c1ccc([C@@H]2[C@@H](C/C=C\CCCC(=O)OC(C)C)[C@H](Cl)C[C@H]2Cl)cc1` (stereo partly specified), the Activity (Rhesus monkey [4]) was 19 mmHg.
For `CCCCCC(O)c1ccc([C@H]2CC[C@@H](Cl)[C@@H]2CCCCCCC(=O)OC)cc1` (stereo partly specified), the EC50 ([1]; hek293) was 50 µM and the Ki ([2]; hek293) was 50 µM.
`CCCCCC(=O)c1ccc([C@H]2[C@H](O)CC(=O)[C@@H]2C/C=C\CCCC(=O)O)cc1` gave an EC50 [1] of 0.031 µM and a Ki [8] of 2.81 µM.
`CCCCCC(=O)c1ccc([C@@H]2[C@@H](C/C=C\CCCC(=O)OC(C)C)[C@H](Cl)C[C@H]2O)cc1` showed an Activity (Rhesus monkey [4]) of 20 mmHg.
Work on `CCCCCC(O)c1ccc([C@H]2CCC=C2CCCCCCC(=O)OC)cc1` (stereo partly specified) yielded an EC50 ([1]; hek293) of 50 µM and a Ki ([2]; hek293) of 50 µM.
With `CC(C)OC(=O)CCC/C=C\C[C@@H]1[C@@H](c2ccc(C(C)(C)CO)cc2)[C@H](O)C[C@H]1Cl` the Activity (Rhesus monkey [4]) was 6 mmHg.
`CCCCCC(O)c1cccc([C@H]2CCC(=O)[C@@H]2CCCCCCC(=O)OC)c1` (stereo partly specified) gave an EC50 ([1]; hek293) of 50 µM and a Ki ([2]; hek293) of 50 µM.
